Results on one compound are retold here after US8207167B2, “Aryl-phenyl-sulfonamide-phenylene compounds and their use” (PIMCO 2664 Limited, priority 2008, dated 2012).

A short description of data set [1]: Thermodynamic aqueous solubility in fasted state simulated intestinal fluid (FaSSIF). The format is physicochemical. The conditions noted are these: fasted state simulated intestinal fluid (FaSSIF), pH 6.5, thermodynamic from solid, 25° C., 24 hours equilibration, HPLC. As to the method:
Initial screening of candidate compounds was performed using in vitro assays to determine potency, metabolic stability and solubility in biologically relevant fluids. Potency was assessed using a viability assay based on the survival of the J774 macrophage cell line. Macrophages are closely related to osteoclasts and have been used previously as a model system for osteoclast survival (see, e.g., Luckman et al., 1998). Like osteoclasts, J774 macrophages are dependent on continued NFκB activation for survival, thereby providing a valuable screen for compounds with anti-inflammatory activity. Metabolic stability was measured by determining the rate of disappearance of compound in the presence of human liver microsomal preparations, as quantified by LC-MS/MS. Solubility was measured by equilibration of the compound in fasted state simulated intestinal fluid (FaSSIF) and quantified by HPLC.
Thermodynamic aqueous solubility was measured by equilibration of a number of APSAP compounds, in the solid state, with fasted state simulated intestinal fluid (FaSSIF) and quantified by HPLC. Measurement of solubility in FaSSIF provides a valuable model for the prediction of drug dissolution following oral administration.
Preparation of blank FaSSIF: NaOH pellets (174 mg), NaH2PO4.2H2O (2.235 g), and NaCl (3.093 g) were dissolved in 500 mL of water. The pH was adjusted to 6.5 using 1 M NaOH solution.
Preparation of FaSSIF: Sodium taurocholate (165 mg) was dissolved in 25 mL blank FaSSIF. 0.6 mL of a solution containing 100 mg/mL lecithin in methylene chloride was added. The methylene chloride was eliminated under vacuum at about 40° C. The vacuum was drawn for 15 minutes at 250 mbar, followed by 15 minutes at 100 mbar. […] After cooling to room temperature, the solution was then adjusted to 100 mL with blank FaSSIF.
The suspension was equilibrated at 25° C. for 24 hours, and then the pH was measured. The suspension was then filtered through a glass fibre C filter into a 96-well plate. The filtrate was then diluted by a factor of 100. Quantification was made by HPLC with reference to a standard solution of compound at approximately 0.1 mg/mL in DMSO. Different volumes of the standard, diluted and undiluted sample solutions were injected. The solubility was calculated using the peak areas determined by integration of the peak found at the same retention time as the principal peak in the standard injection. Analysis was performed on an Agilent HP1100 series system equipped with a diode array detector and using ChemStation software vB.02.01-SR1.

The nature of data set [2]: In vivo pharmacokinetics in rat, oral and intravenous. Set-up: species or system Sprague-Dawley rats. The conditions noted are these: 2.5 mg/kg; for half-life: read-out: T½ (converted). On the procedure:
Absorption and metabolic stability were studied using an in vivo pharmacokinetics assay. Drug levels were assessed using ultra-performance LC/TOF-MS.
Three male Sprague-Dawley rats, 200-300 g, were dosed per route. […] Test compound was formulated in 50:50 tetraethylene glycol:PBS for both routes. Animals were given free access to food throughout the study. On the day prior to dosing, the carotid artery was cannulated for sample collection and for the intravenous study, the jugular vein was cannulated to enable dosing.
Blood samples were taken from the carotid artery at the following time points and placed in heparinised tubes:
Oral dosing—predose, 0.25, 0.5, 1, 2, 4, 8 and 24 hours post dose.
IV dosing—predose, 0.08, 0.25, 0.5, 1, 2, 4 and 8 hours post dose.
Blood samples were centrifuged to obtain plasma, which was transferred to a separate container and frozen at −20° C.
Samples were thawed at room temperature and prepared by protein precipitation with acetonitrile in the ratio 1:2 with plasma, followed by centrifugation for 10 minutes at 16,100×g (Eppendorf 5415D, Eppendorf AG, Hamburg, Germany). The supernatants were collected for analysis. The standard samples were prepared similarly, after spiking blank rat plasma samples to study compound concentrations at 1, 2, 5, 10, 20, 50, 100, 200, 500 and 1000 ng/mL. In addition, extra samples were prepared from 0-1 hour i.v. samples by diluting 1/20 with 50% aqueous acetonitrile to avoid exceeding the linear range of the analytical method.
A Waters Acquity liquid ultra-performance chromatographic system (Waters Corp., Milford, Mass., USA) with autosampler, vacuum degasser and column oven was used. The analytical column used for all compounds was a Waters BEH C18, (2.1×50 mm, 1.7 μm, Waters Corp, Milford, Mass., USA) together with a 0.2 μm on-line filter before the column. The eluents were 0.1% acetic acid (A, pH 3.2) and methanol (B). Gradient elution from 5% to 60% B in two minutes was employed, followed by one minute gradient to 90% B and column equilibration. The flow rate was 0.5 mL/min and the column oven temperature was 35° C. The flow was directed to the MS via Water Acquity photo-diode-array (PDA) detector. LC/TOF-MS data were recorded with a Micromass LCT Premier XE time-of-flight (TOF) mass spectrometer (Micromass Ltd., Manchester, England) equipped with a LockSpray electrospray ionization source. A positive ionization mode of electrospray was used for all compounds. The mass range of m/z 100-900 was acquired. The W-option of the reflector was used, and the DRE (dynamic range enhancement) option was set to on. The mass spectrometer and HPLC system were operated under Micromass MassLynx 4.1 software. Leucine enkephalin ([M+H]^+ m/z 556.2771) was used as a lock mass compound for accurate mass measurements and was delivered into the LockSpray probe with a syringe pump. MassLynx 4.1 software was used for controlling the instrumentation and for data processing.
The pharmacokinetic parameters for the test compounds were calculated by WinNonlin Pro (Pharsight Corp, CA) using standard noncompartmental methods. The elimination phase half-life (t1/2) was calculated by least-squares regression analysis of the terminal linear part of the log concentration−time curve. The area under the plasma concentration−time curve (AUC) was determined by use of the linear trapezoidal rule up to the last measurable concentration and thereafter by extrapolation of the terminal elimination phase to infinity. The tentative oral bioavailability (F) was calculated by dividing the AUC (0-24 hours) after p.o. administration by the AUC (0-8 hours) after i.v. administration, i.e., F=AUC(p.o.)/AUC(i.v), and reported as percentages (%).

The structures appear in SMILES notation. In brackets after ≈: the same amount, converted by molar mass. Read-outs that look alike come from different tables or passages of the source.

As for `O=S(=O)(Nc1cccc(CO)c1)c1ccc(-c2ccc(Cl)cc2Cl)cc1` [ABD455, 2′,4′-dichloro-N-(3-(hydroxymethyl)phenyl)biphenyl-4-sulfonamide, reference compound], in data set [1], the concentration in solution (solubility at 24 h) came to 40 µg/mL (≈ 98 µM). Further, the AUC in data set [2] (i.v.) is reported as 9 ng/mL/min; in data set [2] (p.o.), 1.2 ng/mL/min. In addition, the half-life in data set [2] (male, Sprague-Dawley, plasma, iv, i.v.) is 31.8 min; in data set [2] (male, Sprague-Dawley, plasma, po, p.o.), 48 min. The same compound had a bioavailability in data set [2] (male, Sprague-Dawley, plasma, oral, F=AUC(p.o.)/AUC(i.v.)) of 3%.

For orientation: solubility means how much of the substance goes into solution per volume. What is called bioavailability is the share of a dose that reaches the circulation, judged against a reference dose that is usually intravenous. The low end stands for poor availability, the high end for good availability.
